As a reminder, the IC50 is the concentration that inhibits the measured activity by half. The low end stands for greater potency, the high end for weaker potency.

Among the data in PMC12947280, “An Antifungal with a Novel Mechanism of Action Discovered via Resistance Gene-Guided Genome Mining” (ACS Central Science, 2026) are IC50 values, retold here.

The target in one experiment is C. albicans ALS (Candida albicans, UniProt A0A1D8PJF9). The experiment is described as follows: ALS biochemical assay (CaALS).
Sequence of C. albicans ALS (A0A1D8PJF9 entry or part of it): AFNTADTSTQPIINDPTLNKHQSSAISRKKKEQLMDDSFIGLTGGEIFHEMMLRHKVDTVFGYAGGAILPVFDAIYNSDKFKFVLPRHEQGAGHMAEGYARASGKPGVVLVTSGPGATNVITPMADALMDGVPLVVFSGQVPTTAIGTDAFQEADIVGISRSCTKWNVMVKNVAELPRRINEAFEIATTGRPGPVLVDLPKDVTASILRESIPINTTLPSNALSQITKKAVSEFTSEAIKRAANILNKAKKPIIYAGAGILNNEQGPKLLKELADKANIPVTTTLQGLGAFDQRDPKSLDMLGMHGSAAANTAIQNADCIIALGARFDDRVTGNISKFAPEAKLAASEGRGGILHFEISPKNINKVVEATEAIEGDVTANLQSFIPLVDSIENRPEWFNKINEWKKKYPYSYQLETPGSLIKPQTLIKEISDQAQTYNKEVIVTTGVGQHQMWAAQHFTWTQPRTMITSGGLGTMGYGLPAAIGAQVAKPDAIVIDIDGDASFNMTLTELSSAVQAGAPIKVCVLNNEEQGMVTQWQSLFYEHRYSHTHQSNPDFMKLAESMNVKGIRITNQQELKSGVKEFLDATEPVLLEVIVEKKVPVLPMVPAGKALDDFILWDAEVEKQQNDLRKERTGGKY
A further experiment concerns the target A. fumigatus ALS (Aspergillus fumigatus, UniProt Q4WXQ3). Description: ALS biochemical assay (AfALS). How it is done:
ALS biochemical assay (AfALS)
Aspergillus fumigatus acetohydroxyacid synthase (AfILV2) lacking the N-terminal mitochondrial-targeting sequence (amino acids 112-752) was overproduced and isolated from E. coli as an N-terminally His6-tagged protein. Assays (50 µL final volume) contained 200 nM His6-AfALS, 8 mM pyruvate, 1 mM thiamine pyrophosphate, and 10 µM flavin adenine dinucleotide, 10 mM MgCl2, 1 mM DTT, 1% DMSO (± inhibitor) in 200 mM KH2PO4 buffer at pH
7.5. Following a 30 min pre-incubation of the enzyme and inhibitor in the reaction mixture at room temperature, reactions were initiated with the addition of pyruvate. AfALS assays were carried out at 30 °C for 120 min. The reaction was quenched with the addition of 5 µL of 10% H2SO4 (v/v in deionized water). Reactions were incubated at 60 °C at incubating microplate shaker for 15 min to convert the product of the ALS reaction, acetolactate, to acetoin.
Subsequently, the concentration of acetoin was determined by the addition of 7.5 µL 6 M NaOH, 25 µL 0.5% creatine (w/v in deionized water), and 25 µL 4% 1-naphthol (w/v in 2.5 M NaOH).
This mixture was incubated at 60 °C in an incubating microplate shaker for 15 min. 40 µL of this reaction mixture was transferred to a half area UV-star 96-well plate (Grenier) and the absorbance at 525 nm was measured on a Spark multimode plate reader (Tecan). The percent inhibition was calculated by the comparison of the signal to DMSO (0% inhibition) and no enzyme (100% inhibition) controls. IC50 values were calculated from the dose response curves using Prism 9 (four parameter, variable slope). […]
(amino acids 58-687) was codon optimized for expression in E. coli and synthesized by […]

Sequence of A. fumigatus ALS (Q4WXQ3 entry or part of it): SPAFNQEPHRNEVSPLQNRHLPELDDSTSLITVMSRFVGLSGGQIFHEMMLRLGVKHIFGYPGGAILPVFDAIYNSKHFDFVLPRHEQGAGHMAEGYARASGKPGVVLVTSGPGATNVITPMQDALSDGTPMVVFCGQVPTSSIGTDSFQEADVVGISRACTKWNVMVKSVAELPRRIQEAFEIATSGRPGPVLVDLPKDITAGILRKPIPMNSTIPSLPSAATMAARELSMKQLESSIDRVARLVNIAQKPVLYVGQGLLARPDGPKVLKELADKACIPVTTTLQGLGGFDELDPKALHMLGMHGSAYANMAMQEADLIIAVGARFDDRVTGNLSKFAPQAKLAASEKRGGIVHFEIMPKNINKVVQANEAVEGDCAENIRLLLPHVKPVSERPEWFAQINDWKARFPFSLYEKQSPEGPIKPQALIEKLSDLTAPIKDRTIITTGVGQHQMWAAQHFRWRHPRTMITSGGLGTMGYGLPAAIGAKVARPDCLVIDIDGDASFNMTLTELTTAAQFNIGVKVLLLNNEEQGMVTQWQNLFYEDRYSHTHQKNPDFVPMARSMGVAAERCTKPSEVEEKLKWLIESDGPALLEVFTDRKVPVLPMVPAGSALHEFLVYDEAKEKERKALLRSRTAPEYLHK

`CCCC1C(C)=CC2CC=CC3(C)C2C1C(=O)C31C(=O)NC(CCCO)C1=O` (centres unmarked) [compound 1]: the IC50 against C. albicans ALS stood at 60 ± 10 nM; on A. fumigatus ALS, 49 ± 8 nM.
